In patent US5786333A, “Platelet aggregation inhibitors” (COR Therapeutics, Inc., priority 1995, dated 1998):
Read-outs that look alike come from different tables or passages of the source. Where a SMILES comes first, the peptide text is derived from it. Bridges are numbered along the chain shown (N, C = ends).

How the values were obtained:
[1] = system: open chest dog; assay: Folts model of thrombosis in dog coronary artery (cyclic flow reductions); format: in vivo
Procedure: A. Initiation of cyclic flow reductions (CFRs) in open chest dog. An occluder placed on the left anterior descending (LAD) coronary artery of a 20 kg dog, as previously described was performed.

[2] = target: T1, GP IIb-IIIa (Homo sapiens, UniProt P05106+P08514); assay: Fibrinogen/GP IIb-IIIa plate binding assay; conditions: for differential inhibition of fibrinogen/GP IIb-IIIa binding as compared to vitronectin/vitronectin receptor binding: plate assays, FIG. 30; for inhibition of binding of fibrinogen to GP IIb-IIIa (in words): plate assay
T1 construct: Purified platelet GP IIb-IIIa receptor was prepared as described by Fitzgerald, L. A., et al; from tissue; host or cells: platelets
Procedure: In the assay, GP IIb-IIIa, prepared in purified form, for example as described by Fitzgerald, L. A., et al., Anal Biochem (1985) 151:169-177, incorporated herein by reference, is coated onto a solid support such as beads, test tubes, or microtiter plates. The coated support is then contacted with fibrinogen and with the test material and incubated for a sufficient time to permit maximal binding of fibrinogen to the immobilized GP IIb-IIIa. Fibrinogen is typically provided at a concentration of about 5-50 nM and the test material can, if desired, be added at a series of dilutions. Typical incubations are 2-4 hr at 35° C., the time and temperature being interdependent.
After incubation, the solution containing the fibrinogen and test material is removed and the level of binding of fibrinogen measured by quantitating bound fibrinogen to GP IIb-IIIa. Any suitable means of detection may be used, but it is convenient to employ labeled fibrinogen, for example using radioactive, fluorescent or biotinylated labels. Such methods are well known and need not be elaborated here.
In this case, percent inhibition may be calculated using the amount of Fg bound in the control as representing the basis, so that [formula] Other measures of inhibition effectiveness, such as IC50, may also be used.
Purified platelet GP IIb-IIIa receptor was prepared as described by Fitzgerald, L. A., et al., Anal Biochem (1985) 151:169-177. Vitronectin receptor was prepared as described by Smith, J. W., J Biol Chem (1988) 263:18726-18731. After purification, the receptors were stored in 0.1% Triton X-100 at 0.1-1.0 mg/ml.
The receptors were coated to the wells of 96-well flat-bottom ELISA plates (Linbro EIA-Plus microtiter plate, Flow Laboratories) after diluting 1:200 with a solution of […], 150 mM NaCl, 1 mM CaCl2, pH 7.4, to reduce the Triton X-100 concentration to below its critical micellar concentration and adding an aliquot of 100 ul to each well. The wells were all allowed to incubate overnight at 4° C., and then aspirated to dryness. Additional sites were blocked by the addition of bovine serum albumin (BSA) at 35 mg/ml in the above buffer for 2 hr at 30° C. to prevent nonspecific binding. The wells were then washed once with binding buffer ([…] Tris-HCl, 100 mM NaCl, 2 mM CaCl2, 1 mg/ml BSA).
The corresponding ligands (fibrinogen, von Willebrand Factor, or vitronectin) were labeled with ^125 I or conjugated to biotin using commercially available re-agents and standard protocols. The labeled ligands were added to the receptor-coated wells at final concentration of 10 nM (100 ul/well) and incubated for 3 h at 30° C. in the presence or absence of the test samples. After incubation, the wells are aspirated to dryness and bound ligand is quantitated.
(§1) For ^125 I-labeled ligands, the protein is solubilized with 250 ul SDS. For biotinylated ligands, the bound protein is detected by the addition of antibiotin antibody conjugated to alkaline phosphatase followed by addition of substrate (p-nitrophenyl phosphate), and determination of the optical density of each well at 405 nm.
Sixty-eight crude, lyophilized snake venoms obtained from either Sigma Chemical Company (St. Louis, Mo.) or Miami Serpentarium Labs (Salt Lake City, Utah) were dissolved at 1 mg/ml in buffer (50 mM Tris, 100 mM NaCl, 0.02% azide, 2 mM CaCi2). One ml aliquots of the solutions were subjected to ultrafiltration through Centrocon-10 (YM membrane) microconcentrators (Amicon, Danvers, Mass.). The filtrates were used as test samples in the receptor/ligand assay of paragraph A using the GP IIb-IIIa/fibrinogen system, and detecting binding using biotinylated fibrinogen.

[3] = target: human platelets (Homo sapiens, UniProt P05106+P08514); assay: ADP-induced human platelet aggregation in platelet rich plasma; format: cell-based
Procedure: In these assays, washed platelets are combined with fibrinogen, Ca^+2 and the material to be tested.
Platelet rich plasma (PRP) was obtained from a healthy human volunteer. Aggregation was induced by the addition of 4 uM ADP to 0.5 ml PRP in an aggregometer (Chrono-log Corp.).
Fractions were concentrated to one-half their original volume using a Speed-Vac concentrator (Savant) followed by lyophilization. Samples were then reconstituted in 1 ml distilled water and aliquots (10-50 ul) assayed for their ability to inhibit human platelet aggregation in platelet-rich plasma induced by 20 uM ADP using a whole blood aggregometer (Chrono-Log Corp., Havertown, Pa.).

[4] = system: M21 melanoma cells; assay: M21 melanoma cell attachment to vitronectin; format: cell-based; conditions: for inhibition of M21 melanoma cell attachment to vitronectin (in words): 35S-methionine labelled cells, vitronectin-coated plates
Procedure: M21 melanoma cells, which express high levels of the vitronectin receptor, were metabolically labelled with ^35 S-methionine, and then added to 24--well tissue culture plates coated with vitronectin. An incubation period of 1 hr at 37° C. was allowed for cell attachment, and this was followed by a wash to remove non-adherent cells. After washing, the adherent cells were solubilized, and the supernatants placed in a liquid scintillation counter. The fraction of cells remaining adherent was calculated by dividing the cpm in the solubilized supernatants by the cpm in the total number of cells added to each well. The effects of purifed snake venom peptides and synthetic cyclic peptides on cell adhesion was determined by including them with the M21 cells during the incubation period.
M21 melanoma cells were labelled with ^35 S-methionine, and then added to vitronectin-coated plates in the presence of the indicated concentrations of purified snake venom peptides. Cell attachment was measured by solubilizing the cells remaining after an incubation and wash, as described in Section C, on page 40.

[5] = target: T2, vitronectin receptor (Homo sapiens, UniProt P05106+P06756); assay: Vitronectin/vitronectin receptor plate binding assay
T2 construct: Vitronectin receptor was prepared as described by Smith, J. W., J Biol Chem (1988) 263:18726-18731; from tissue; the cited method uses human placenta (own knowledge)
Description: The assay systems of the invention further include characterization of the PAI specificity by binding inhibition assays identical to that above but substituting other adhesive proteins for Fg and other receptors for GP IIb-IIIa. In particular, inhibition of the binding of vitronectin to the vitronectin receptor; fibronectin to the fibronectin receptor; fibronectin to GP IIb-IIIa and fibrinogen and/or vWF to GP IIb-IIIa may be assessed. The adhesive protein and receptors for these assays are available in the art.
Purified platelet GP IIb-IIIa receptor was prepared as described by Fitzgerald, L. A., et al., Anal Biochem (1985) 151:169-177. Vitronectin receptor was prepared as described by Smith, J. W., J Biol Chem (1988) 263:18726-18731. […]
The corresponding ligands (fibrinogen, von Willebrand Factor, or vitronectin) were labeled with ^125 I or conjugated to biotin using commercially available re-agents and standard protocols. […] After incubation, the wells are aspirated to dryness and bound ligand is quantitated.
as §1, with “nm. […]” for “nm.”

[6] = target: platelet receptors (Homo sapiens, UniProt P05106+P08514); conditions: read-out: IC50 (affinity of interaction with platelet receptors); background art; cited from earlier work
[7] = ADP-induced human platelet aggregation, table of Example 17, read-out: Appr. IC50

T2 sequence (P06756 31-889 limits assumed): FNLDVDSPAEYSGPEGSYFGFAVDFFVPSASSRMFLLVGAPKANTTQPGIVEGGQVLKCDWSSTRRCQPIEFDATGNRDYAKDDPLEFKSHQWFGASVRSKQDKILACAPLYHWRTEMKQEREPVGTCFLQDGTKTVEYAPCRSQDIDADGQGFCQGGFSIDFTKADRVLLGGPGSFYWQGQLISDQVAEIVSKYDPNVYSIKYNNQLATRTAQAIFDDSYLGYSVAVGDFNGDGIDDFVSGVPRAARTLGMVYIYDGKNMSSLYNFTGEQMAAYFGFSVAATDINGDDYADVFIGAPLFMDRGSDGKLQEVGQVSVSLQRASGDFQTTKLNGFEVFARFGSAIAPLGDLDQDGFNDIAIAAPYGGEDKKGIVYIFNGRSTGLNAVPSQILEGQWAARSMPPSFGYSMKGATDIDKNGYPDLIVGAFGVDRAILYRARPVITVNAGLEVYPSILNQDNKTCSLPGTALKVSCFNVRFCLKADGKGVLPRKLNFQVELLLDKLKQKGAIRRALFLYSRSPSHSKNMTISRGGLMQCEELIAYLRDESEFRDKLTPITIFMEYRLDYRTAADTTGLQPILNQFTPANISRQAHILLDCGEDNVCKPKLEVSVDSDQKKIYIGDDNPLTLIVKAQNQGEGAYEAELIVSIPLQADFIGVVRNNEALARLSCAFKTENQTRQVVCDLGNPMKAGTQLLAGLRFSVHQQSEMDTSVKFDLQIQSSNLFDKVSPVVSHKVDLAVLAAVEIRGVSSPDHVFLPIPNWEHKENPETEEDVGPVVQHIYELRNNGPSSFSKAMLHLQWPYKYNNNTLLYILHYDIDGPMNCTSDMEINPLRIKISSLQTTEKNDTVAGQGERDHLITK
T2 sequence (P06756 891-1048 partner limits assumed): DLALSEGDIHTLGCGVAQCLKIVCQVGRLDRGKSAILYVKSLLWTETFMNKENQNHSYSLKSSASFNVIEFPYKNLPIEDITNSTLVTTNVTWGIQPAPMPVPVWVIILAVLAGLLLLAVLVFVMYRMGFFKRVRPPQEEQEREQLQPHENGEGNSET
T2 sequence (P05106 27-788): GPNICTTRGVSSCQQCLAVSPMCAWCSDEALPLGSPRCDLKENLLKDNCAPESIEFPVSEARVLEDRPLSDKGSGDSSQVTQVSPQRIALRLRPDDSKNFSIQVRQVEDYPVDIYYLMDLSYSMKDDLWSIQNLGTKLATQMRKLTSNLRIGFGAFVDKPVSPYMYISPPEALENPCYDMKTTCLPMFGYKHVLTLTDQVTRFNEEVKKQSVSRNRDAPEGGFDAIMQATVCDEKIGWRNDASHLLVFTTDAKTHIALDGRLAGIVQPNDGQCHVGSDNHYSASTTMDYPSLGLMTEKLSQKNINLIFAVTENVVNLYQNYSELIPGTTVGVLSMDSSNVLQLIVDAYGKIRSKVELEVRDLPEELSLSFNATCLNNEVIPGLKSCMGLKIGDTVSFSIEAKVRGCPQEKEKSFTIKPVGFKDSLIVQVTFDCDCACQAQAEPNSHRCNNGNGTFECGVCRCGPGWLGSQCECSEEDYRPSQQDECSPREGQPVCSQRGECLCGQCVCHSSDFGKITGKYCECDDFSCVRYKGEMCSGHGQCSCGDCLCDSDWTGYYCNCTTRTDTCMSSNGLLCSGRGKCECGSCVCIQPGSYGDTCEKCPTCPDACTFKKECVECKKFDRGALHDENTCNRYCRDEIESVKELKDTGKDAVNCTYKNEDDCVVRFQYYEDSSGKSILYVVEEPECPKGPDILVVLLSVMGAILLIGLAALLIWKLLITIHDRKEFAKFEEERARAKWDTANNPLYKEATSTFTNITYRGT

C[C@H](NC(=O)[C@@H]1CSSC[C@H](NC(=O)CN)C(=O)NCC(=O)N[C@@H](CCCCN)C(=O)NCC(=O)N[C@@H](CC(=O)O)C(=O)N[C@@H](Cc2c[nH]c3ccccc23)C(=O)N2CCC[C@H]2C(=O)N1)C(N)=O [#3]
effect on cyclic flow reductions (CFRs) in LAD coronary artery ([1]; 10 mg infused into a peripheral vein, 20 kg open chest dog, FIG. 36): partial ablation of the CFRs
effect on cyclic flow reductions (CFRs) in LAD coronary artery ([1]; second infusion of 40 mg into a peripheral vein, open chest dog, FIG. 37): complete ablation of the CFRs

C[C@H](NC(=O)[C@@H]1CSSC[C@H](NC(=O)CN)C(=O)N[C@@H](CCCCN)C(=O)NCC(=O)N[C@@H](CC(=O)O)C(=O)N[C@@H](Cc2c[nH]c3ccccc23)C(=O)N2CCC[C@H]2C(=O)N1)C(N)=O [#4] (H-GCKGDWPCA-NH2; disulfide 2-8)
differential inhibition of fibrinogen/GP IIb-IIIa binding as compared to vitronectin/vitronectin receptor binding [2]: highest differential

NCCCC[C@@H]1NC(=O)CNC(=O)[C@@H](N)CSSC[C@@H](C(N)=O)NC(=O)[C@@H]2CCCN2C(=O)[C@H](Cc2c[nH]c3ccccc23)NC(=O)[C@H](CC(=O)O)NC(=O)CNC1=O [#5] (H-CGKGDWPC-NH2; disulfide 1-8)
differential inhibition of fibrinogen/GP IIb-IIIa binding as compared to vitronectin/vitronectin receptor binding [2]: quite specific
platelet aggregation inhibition (in words) [3]: excellent platelet aggregation inhibition activities

C[C@H](NC(=O)[C@@H]1CSSC[C@H](NC(=O)CN)C(=O)NCC(=O)N[C@@H](CCCCN)C(=O)NCC(=O)N[C@@H](CC(=O)O)C(=O)N[C@@H](Cc2c[nH]c3ccccc23)C(=O)N1)C(N)=O [#6] (H-GCGKGDWCA-NH2; disulfide 2-8)
IC50 [3, 7]: > 200 µM

C[C@H](NC(=O)[C@@H]1CSSC[C@H](NC(=O)CN)C(=O)N[C@@H](CCCCN)C(=O)NCC(=O)N[C@@H](CC(=O)O)C(=O)N[C@@H](Cc2c[nH]c3ccccc23)C(=O)N1)C(N)=O [#7] (H-GCKGDWCA-NH2; disulfide 2-7)
differential inhibition of fibrinogen/GP IIb-IIIa binding as compared to vitronectin/vitronectin receptor binding [2]: quite specific
platelet aggregation inhibition (in words) [3]: excellent platelet aggregation inhibition activities
IC50 ([3]; text of Example 17, read-out: IC50 for ability to inhibit ADP-induced human platelet aggregation): 100 µM

NCCCC[C@@H]1NC(=O)[C@@H](N)CSSC[C@@H](C(N)=O)NC(=O)[C@@H]2CCCN2C(=O)[C@H](Cc2c[nH]c3ccccc23)NC(=O)[C@H](CCC(=O)O)NC(=O)CNC1=O [#35] (H-CKGEWPC-NH2; disulfide 1-7)
IC50 [3, 7]: > 300 µM

C[C@H](NC(=O)[C@@H]1CSSC[C@H](NC(=O)CN)C(=O)NCC(=O)N[C@@H](CCCCN)C(=O)NCC(=O)N[C@@H](CC(=O)O)C(=O)N[C@@H](Cc2c[nH]c3ccccc23)C(=O)N1)C(N)=O [Analog 6] (H-GCGKGDWCA-NH2; disulfide 2-8)
differential inhibition of fibrinogen/GP IIb-IIIa binding as compared to vitronectin/vitronectin receptor binding [2]: differentially capable

CC(=O)N[C@H]1CSSC[C@@H](C(N)=O)NC(=O)[C@H](CC(=O)O)NC(=O)CNC(=O)[C@H](CCCCN)NC1=O [Analog 8] (Ac-CKGDC-NH2; disulfide 1-5)
differential inhibition of fibrinogen/GP IIb-IIIa binding as compared to vitronectin/vitronectin receptor binding [2]: differentially capable

C[C@H](NC(=O)[C@@H]1CSSC[C@H](NC(=O)CN)C(=O)NCC(=O)N[C@@H](CCCCN)C(=O)NCC(=O)N[C@@H](CC(=O)O)C(=O)N[C@@H](Cc2c[nH]c3ccccc23)C(=O)N2CCC[C@H]2C(=O)N1)C(N)=O [Analog #3, G-C-G-K-G-D-W-P-C-A-NH2]
inhibition of M21 melanoma cell attachment to vitronectin (in words) [4]: lack of ability
concentration up to which ineffective on M21 cell attachment to vitronectin ([4]; FIG. 32): > 60 µM

N=C(N)NCCC[C@H](N)C(=O)NCC(=O)N[C@@H](CC(=O)O)C(=O)N[C@@H](Cc1c[nH]c2ccccc12)C(N)=O [RGDW-NH2, reference compound] (H-RGDW-NH2)
inhibition of binding of fibrinogen to GP IIb-IIIa (in words) [2]: very similar in activity to cyclic GCGRGDWPCA-NH2

C[C@H](NC(=O)[C@@H]1CSSC[C@H](NC(=O)CN)C(=O)NCC(=O)N[C@@H](CCCNC(=N)N)C(=O)NCC(=O)N[C@@H](CC(=O)O)C(=O)N[C@@H](Cc2c[nH]c3ccccc23)C(=O)N2CCC[C@H]2C(=O)N1)C(N)=O [reference compound] (H-GCGRGDWPCA-NH2; disulfide 2-9)
inhibition of M21 melanoma cell attachment to vitronectin (in words) [4]: potent inhibitors of cell attachment
inhibition of M21 melanoma cell attachment to vitronectin (in words) ([4]; listed as cyclic RGD compound): ability

ECADGLCCDQCRFLKKGTVCRVAKGDWNDDTCTGQSC- D-C-P-R-N-G-L-Y-G (ECADGLCCDQCRFLKKGTVCRVAKGDWNDDTCTGQSCDCPRNGLYG) [Analog #1]
inhibition of M21 melanoma cell attachment to vitronectin (in words) [4]: neither barbourin nor Peptide 1 (truncated barbourin) had a significant effect
platelet aggregation inhibition (in words) [3]: potent inhibitors of platelet aggregation

EEPCATGPCCRRCKFKRAGKVCRVAKGDWNNDYCTGKSCDCPRNPWNG (EEPCATGPCCRRCKFKRAGKVCRVAKGDWNNDYCTGKSCDCPRNPWNG) [Analog #2]
inhibition of binding of vitronectin to vitronectin receptor (in words) [5]: inability to inhibit
inhibition of binding of fibrinogen to GP IIb-IIIa (in words) [2]: ability

HHLGGAQKAGDV
IC50 [6]: 10 to 100 µM
